Laboratory results taken from patent US4431665A, “Acylated laidlomycin derivatives” (priority 1980, dated 1984).
Read-outs that look alike come from different tables or passages of the source.

Experiments:
ruminants = conditions: in words; U.S. Pat. No. 3,794,732; cited from earlier work
[1] = Acute oral toxicity (mortality, LD50) in mice; type: in vivo, mouse (Swiss-Webster); conditions: mouse, in vivo, male Swiss-Webster mice, 21 days
Method: (§1) Five groups of male, Swiss-Webster mice (Simonsen), each mouse weighing about 25 grams, were dosed orally with 0.25 ml of a solution of laidlomycin butyrate in sesame oil. A control group of six mice received only sesame oil. The mice were observed daily for mortality for 21 days. From this information the LD50 as calculated to be more than 200 mg/kg.

male, Swiss-Webster mice = assay: Acute oral toxicity (mortality, LD50) in mice; type: in vivo, mouse (Swiss-Webster); conditions: sesame oil, 21 days
Method: as §1

[2] = tested on: rumen microorganisms (mixed microbial population of rumen contents); assay: Enhancement of intraruminal propionic acid production, batch culture fermentation of rumen contents; type: cell-based, bovine (rumen-fistulated); conditions: for % Propionic Acid: 9 h, 39° C.
Method: Enhancement of intraruminal propionic acid production is determined using a batch culture fermentation system. Rumen contents from a rumen-fistulated bovine are mixed with an equal amount of buffer which contains mineral, energy and nitrogen sources required for continued growth and metabolism of the mixed microbial population. Aliquots of this inoculum then are transferred to incubation vessels containing appropriate amounts of sodium laidlomycin (Na L.) (see Example 1A), and L. butyrate (L.C4) (prepared according to the procedure of Example 1A). After 9 hours of incubation at 39° C., concentrations of individual volatile fatty acids in each incubation vessel are determined by gas-liquid chromatography. The net production of each individual volatile fatty acid (acetic [AA], propionic [PA] and butyric [BA]) is calculated as the difference between the concentration after incubation and the concentration before incubation. The molar percentage of propionic acid produced is calculated from the following equation: [formula]
The comparative activities of sodium laidlomycin (Na L.) and the laidlomycin butyrate upon propionic acid and lactic acid production are set forth in Tables 1 and 2 where the concentration is in micrograms per ml (μg/ml).
(§2) The procedure of Example 2 was followed to compare laidlomycin (L.), sodium L. (Na L.), L.-propionate (L.C3), L. butyrate (L.C4), L. isobutyrate (L. isoC4), L. pentanoate (L.C5) and L. hexanoate (L.C6).
(§3) The procedure of Example 2 was followed to compare the activities of L. heptanoate (L. C7), L. octanoate (L. C8), L. decanoate (L. C10) and L. dodecanoate (L. C12) in increasing propionic acid production and inhibiting lactic acid production.
(§4) The procedure of Example 2 was followed to compare the activities of laidlomycin (L.) acetate (L. C2), L. pentanoate (L. C5), L. stearate (L. C18), L. cyclobutylcarboxylate, L. cyclopentylcarboxylate, L. cyclohexylcarboxylate and L. cyclopropylcarboxylate.

[3] = tested on: rumen contents (lactic acid accumulation); assay: Inhibition of lactic acid accumulation, second batch culture fermentation of rumen contents with glucose; type: cell-based, bovine (rumen fistulated); conditions: for activity at 2.5 µg/mL: 2.5 μg/ml; for activity at 10 µg/mL: 10 μg/ml; for activity at 0.62 µg/mL: .62 μg/ml; for Accumulation of Lactic Acid - % of Control: Table 4, 360 min
Method: Inhibition of lactic acid accumulation is determined using a second batch culture fermentation system. Rumen contents from a rumen fistulated bovine are mixed with an equal amount of buffer which contains a 150 mM concentration of glucose. Following 6 hours of incubation at 39° C., lactic acid produced in the fermentation is analyzed by a specific enzymatic assay. The concentration of lactic acid in the fermentation broth is quantified by the increase in absorbance of light at […] when nicotinamide adenine dinucleotide is reduced by lactic acid with the aid of lactate dehydrogenase. […]
as §2, §3, §4

Gram-positive bacteria = conditions: in words; J. Antibiotics 1974, 1976; cited from earlier work
[4] = Table 1, 1.25 μg/ml, 0 μg/ml: 35.4
[5] = Table 1, 2.5 μg/ml, 0 μg/ml: 35.4
[6] = Table 1, 5 μg/ml, 0 μg/ml: 35.4
[7] = Table 1, 10 μg/ml, 0 μg/ml: 35.4
[8] = Table 1, .31 μg/ml, 0 μg/ml: 35.4
[9] = Table 1, .62 μg/ml, 0 μg/ml: 35.4
[10] = Table 3, 1.25 μg/ml, 0 μg/ml: 28.5
[11] = Table 3, 5 μg/ml, 0 μg/ml: 28.5
[12] = Table 3, 20 μg/ml, 0 μg/ml: 28.5
[13] = Table 3, .31 μg/ml, 0 μg/ml: 28.5
[14] = in words, compared with laidlomycin or its sodium salt
[15] = Bos taurus, 6 h, read-out: Accumulation of Lactic Acid - % of Control, Table 4, 1.25 μg/ml, 6 h, 39° C.
[16] = Bos taurus, 6 h, read-out: Accumulation of Lactic Acid - % of Control, Table 4, .31 μg/ml, 6 h, 39° C.
[17] = Bos taurus, 6 h, read-out: Lactic Acid Accumulation (% of Control), Table 2, 1.25 μg/ml, 6 h, 39° C.
[18] = Bos taurus, 6 h, read-out: Lactic Acid Accumulation (% of Control), Table 2, 6 h, 39° C.
[19] = Bos taurus, 6 h, read-out: Lactic Acid Accumulation (% of Control), Table 2, 5 μg/ml, 6 h, 39° C.
[20] = Bos taurus, 6 h, read-out: Lactic Acid Accumulation (% of Control), Table 2, .31 μg/ml, 6 h, 39° C.

Row | Molecule | % Propionic Acid [2, 4] [%] | % Propionic Acid [2, 5] [%] | % Propionic Acid [2, 6] [%] | % Propionic Acid [2, 7] [%] | % Propionic Acid [2, 8] [%] | % Propionic Acid [2, 9] [%] | % Propionic Acid [2, 10] [%] | % Propionic Acid [2, 11] [%] | % Propionic Acid [2, 12] [%] | % Propionic Acid [2, 13] [%] | activity at 1.25 µg/mL [3, 15] [%] | activity at 0.31 µg/mL [3, 16] [%] | activity at 1.25 µg/mL [3, 17] [%] | activity at 2.5 µg/mL [3, 18] [%] | activity at 5 µg/mL [3, 19] [%] | activity at 10 µg/mL [3, 18] [%] | activity at 0.31 µg/mL [3, 20] [%] | activity at 0.62 µg/mL [3, 18] [%] | Accumulation of Lactic Acid - % of Control ([3]; 5 μg/ml, 6 h, 39° C.) | Accumulation of Lactic Acid - % of Control ([3]; 20 μg/ml, 6 h, 39° C.) | also measured
1 | monensin | – | – | – | – | – | – | – | – | – | – | – | – | – | – | – | – | – | – | – | – | increasing feed utilization in ruminants (ruminants): useful in increasing feed utilization in ruminants
2 | CCCC(=O)OCC1(O)OC(C2CC(C)C(C3(C)CCC(C4(C)CCC5(CC(O)C(C)C(C(C)C(OC(=O)CC)C(C)C(=O)O)O5)O4)O3)O2)C(C)CC1C (stereo not shown) [L. C4, monobutyrate of laidlomycin] | 46.1 | 52.2 | 49.3 | 53.9 | 43.6 | 46.4 | 39.9 | 43.7 | 46.9 | 35.5 | 13 | 38 | 8 | 11 | 13 | 13 | 71 | 30 | – | – | LD50 at 504 h [1]: > 200 mg/kg; No. Deaths/No. Mice (male, Swiss-Webster mice; 12.5 mg/kg): 0/6; No. Deaths/No. Mice (male, Swiss-Webster mice; 25 mg/kg): 0/6; No. Deaths/No. Mice (male, Swiss-Webster mice; 50 mg/kg): 0/6; No. Deaths/No. Mice (male, Swiss-Webster mice; 100 mg/kg): 0/6; No. Deaths/No. Mice (male, Swiss-Webster mice; 200 mg/kg): 0/6; enhancement of propionic acid production (molar percentage of propionate) [2, 14]: surprisingly increased potency; activity at 5 µg/mL ([3]; Bos taurus, 6 h, read-out: Accumulation of Lactic Acid - % of Control, Table 4, 5 μg/ml, 6 h, 39° C.): 15%; activity at 20 µg/mL ([3]; Bos taurus, 6 h, read-out: Accumulation of Lactic Acid - % of Control, Table 4, 20 μg/ml, 6 h, 39° C.): 19%; inhibition of lactic acid production/accumulation [3, 14]: surprisingly increased potency
3 | CCC(=O)OC(C(C)C(=O)O)C(C)C1OC2(CCC(C)(C3CCC(C)(C4OC(C5OC(O)(CO)C(C)CC5C)CC4C)O3)O2)CC(O)C1C (stereo not shown) [L., laidlomycin] | – | – | – | – | – | – | 36.0 | 39.8 | 43.2 | 32.1 | 83 | 121 | – | – | – | – | – | – | 20 % of Control | 16 % of Control | growth inhibition of Gram-positive bacteria (Gram-positive bacteria): inhibits the growth of some Gram-positive bacteria
4 | CCC(=O)OC(C(C)C(=O)O)C(C)C1OC2(CCC(C)(C3CCC(C)(C4OC(C5OC(O)(CO)C(C)CC5C)CC4C)O3)O2)CC(O)C1C (stereo not shown) [Na L., sodium laidlomycin, reference compound] | 41.3 | 43.2 | 44.4 | 45.4 | 40.2 | 40.8 | 34.1 | 34.6 | 36.8 | 32.0 | – | – | 125 | 112 | 93 | 67 | 135 | 132 | 57 % of Control | 40 % of Control | Accumulation of Lactic Acid - % of Control ([3]; 1.25 μg/ml, 6 h, 39° C.): 94 % of Control; Accumulation of Lactic Acid - % of Control ([3]; .31 μg/ml, 6 h, 39° C.): 114 % of Control
